Activity calls are given as the source filed them. No cut-off for these calls is given here.
Experiments:
[1] = target: Aurora kinase B (Homo sapiens) (UniProt Q96GD4); experiment: Inhibition of Aurora B (unknown origin) assessed as residual enzyme activity at 1 uM relative to untreated control
[2] = target: RAC-alpha serine/threonine-protein kinase (Homo sapiens) (UniProt P31749); experiment: Inhibition of PKBalpha (unknown origin) assessed as residual enzyme activity at 1 uM relative to untreated control
[3] = target: Tyrosine-protein kinase Lck (Homo sapiens) (UniProt P06239); experiment: Inhibition of LCK (unknown origin) assessed as residual enzyme activity at 1 uM relative to untreated control
[4] = target: Proto-oncogene tyrosine-protein kinase Src (Homo sapiens) (UniProt P12931); experiment: Inhibition of SRC (unknown origin) assessed as residual enzyme activity at 1 uM relative to untreated control
[5] = target: Serine/threonine-protein kinase PLK1 (Homo sapiens) (UniProt P53350); experiment: Inhibition of PLK1 (unknown origin) assessed as residual enzyme activity at 1 uM relative to untreated control
MCF7 = experiment: Cytotoxicity against human MCF7 cells assessed as decrease in cell proliferation after 72 hrs by calcein AM staining-based assay; type: functional; settings: MCF7, 72 h
[6] = target: Glycogen synthase kinase-3 beta (Homo sapiens) (UniProt P49841); experiment: Inhibition of GSK3beta (unknown origin) assessed as residual enzyme activity at 1 uM relative to untreated control
[7] = target: Serine/threonine-protein kinase Nek6 (Homo sapiens) (UniProt Q9HC98); experiment: Inhibition of NEK6 (unknown origin) assessed as residual enzyme activity at 1 uM relative to untreated control
[8] = target: High affinity nerve growth factor receptor (Homo sapiens) (UniProt P04629); experiment: Inhibition of TRKA (unknown origin) assessed as residual enzyme activity at 1 uM relative to untreated control
[9] = target: Tyrosine-protein kinase SYK (Homo sapiens) (UniProt P43405); experiment: Inhibition of SYK (unknown origin) assessed as residual enzyme activity at 1 uM relative to untreated control
[10] = target: Calcium/calmodulin-dependent protein kinase type 1 (Homo sapiens) (UniProt Q14012); experiment: Inhibition of CAMK1 (unknown origin) assessed as residual enzyme activity at 1 uM relative to untreated control
BJ = experiment: Cytotoxicity against human BJ cells assessed as decrease in cell proliferation up to 100 uM after 72 hrs by calcein AM staining-based assay
[11] = target: T1, TGF-beta receptor type-1 (Homo sapiens) (UniProt P36897); settings: HeLa, at 1 µM
T1 sequence (whole entry): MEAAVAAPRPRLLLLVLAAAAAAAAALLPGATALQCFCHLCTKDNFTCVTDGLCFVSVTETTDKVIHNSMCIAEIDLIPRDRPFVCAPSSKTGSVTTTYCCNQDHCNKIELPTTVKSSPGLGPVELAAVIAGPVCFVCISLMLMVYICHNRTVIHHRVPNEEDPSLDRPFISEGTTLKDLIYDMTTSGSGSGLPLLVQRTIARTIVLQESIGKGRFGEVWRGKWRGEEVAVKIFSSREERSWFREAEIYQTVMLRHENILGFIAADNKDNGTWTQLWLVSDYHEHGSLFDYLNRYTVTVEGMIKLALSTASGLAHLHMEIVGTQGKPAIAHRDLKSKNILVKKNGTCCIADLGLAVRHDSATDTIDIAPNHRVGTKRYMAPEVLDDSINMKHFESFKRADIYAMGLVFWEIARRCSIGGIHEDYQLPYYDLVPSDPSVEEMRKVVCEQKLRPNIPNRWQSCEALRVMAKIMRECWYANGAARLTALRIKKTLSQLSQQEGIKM
Description: Inhibition of ALK5 in serum starved human HeLa cells assessed as reduction in TGF-beta-induced SMAD2/3 nuclear transaction at 1 uM pre-incubated for 30 mins before TGF-beta stimulation for 30 mins by immunofluorescence analysis

[12] = target: Serine/threonine-protein kinase PAK 4 (Homo sapiens) (UniProt O96013); experiment: Inhibition of PAK4 (unknown origin) assessed as residual enzyme activity at 1 uM relative to untreated control
[13] = target: Interleukin-1 receptor-associated kinase 4 (Homo sapiens) (UniProt Q9NWZ3); experiment: Inhibition of IRAK4 (unknown origin) assessed as residual enzyme activity at 1 uM relative to untreated control
[14] = target: Myosin light chain kinase, smooth muscle (Homo sapiens) (UniProt Q15746); experiment: Inhibition of SmMLCK (unknown origin) assessed as residual enzyme activity at 1 uM relative to untreated control
[15] = target: Vascular endothelial growth factor receptor (Homo sapiens) (UniProt P17948+P35916+P35968); experiment: Inhibition of VEGFR (unknown origin) assessed as residual enzyme activity at 1 uM relative to untreated control; type: protein assay
[16] = target: Dual specificity protein kinase TTK (Homo sapiens) (UniProt P33981); experiment: Inhibition of TTK (unknown origin) assessed as residual enzyme activity at 1 uM relative to untreated control
[17] = target: Serine/threonine-protein kinase pim-1 (Homo sapiens) (UniProt P11309); experiment: Inhibition of PIM1 (unknown origin) assessed as residual enzyme activity at 1 uM relative to untreated control
[18] = target: Mitogen-activated protein kinase 8 (Homo sapiens) (UniProt P45983); experiment: Inhibition of JNK1 (unknown origin) assessed as residual enzyme activity at 1 uM relative to untreated control
[19] = target: Mitogen-activated protein kinase kinase kinase 11 (Homo sapiens) (UniProt Q16584); experiment: Inhibition of MLK3 (unknown origin) assessed as residual enzyme activity at 1 uM relative to untreated control
[20] = target: Serine/threonine-protein kinase Chk2 (Homo sapiens) (UniProt O96017); experiment: Inhibition of CHK2 (unknown origin) assessed as residual enzyme activity at 1 uM relative to untreated control
[21] = target: Serine/threonine-protein kinase N2 (Homo sapiens) (UniProt Q16513); experiment: Inhibition of PRK2 (unknown origin) assessed as residual enzyme activity at 1 uM relative to untreated control
[22] = target: Cyclin-dependent kinase 2/cyclin E1 (Homo sapiens, UniProt P24941); experiment: Inhibition of human CDK2/cyclin E expressed in Sf9 insect cells using histone H1 as substrate in presence of [gamma-33P]ATP; type: cell-based
[23] = target: Rho-associated protein kinase 2 (Homo sapiens) (UniProt O75116); experiment: Inhibition of ROCK2 (unknown origin) assessed as residual enzyme activity at 1 uM relative to untreated control
[24] = target: Casein kinase 2 (Homo sapiens) (UniProt P67870+P68400+P19784+Q8NEV1); experiment: Inhibition of CK2 (unknown origin) assessed as residual enzyme activity at 1 uM relative to untreated control; type: protein assay
[25] = target: Tyrosine-protein kinase BTK (Homo sapiens) (UniProt Q06187); experiment: Inhibition of BTK (unknown origin) assessed as residual enzyme activity at 1 uM relative to untreated control
[26] = target: AMP-activated protein kinase, AMPK (Homo sapiens) (UniProt P54646+O43741+P54619+Q9UGJ0+Q9Y478+Q13131+Q9UGI9); experiment: Inhibition of AMPK (unknown origin) assessed as residual enzyme activity at 1 uM relative to untreated control; type: protein-complex assay
K562 = experiment: Cytotoxicity against human K562 cells assessed as decrease in cell proliferation after 72 hrs by calcein AM staining-based assay; type: functional; settings: K562, 72 h

Serine/threonine-protein kinase pim-1 (Homo sapiens), sequence (P11309 whole entry, looked up): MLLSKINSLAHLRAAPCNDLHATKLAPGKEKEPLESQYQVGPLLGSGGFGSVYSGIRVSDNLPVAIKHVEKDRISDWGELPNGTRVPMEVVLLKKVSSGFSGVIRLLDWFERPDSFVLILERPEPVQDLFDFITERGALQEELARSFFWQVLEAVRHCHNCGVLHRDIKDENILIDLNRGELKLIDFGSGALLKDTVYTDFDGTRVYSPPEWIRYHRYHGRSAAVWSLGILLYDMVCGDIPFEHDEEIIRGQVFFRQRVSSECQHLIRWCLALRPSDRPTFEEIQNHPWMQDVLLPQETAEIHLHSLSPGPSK
Glycogen synthase kinase-3 beta (Homo sapiens), sequence (P49841 whole entry, looked up): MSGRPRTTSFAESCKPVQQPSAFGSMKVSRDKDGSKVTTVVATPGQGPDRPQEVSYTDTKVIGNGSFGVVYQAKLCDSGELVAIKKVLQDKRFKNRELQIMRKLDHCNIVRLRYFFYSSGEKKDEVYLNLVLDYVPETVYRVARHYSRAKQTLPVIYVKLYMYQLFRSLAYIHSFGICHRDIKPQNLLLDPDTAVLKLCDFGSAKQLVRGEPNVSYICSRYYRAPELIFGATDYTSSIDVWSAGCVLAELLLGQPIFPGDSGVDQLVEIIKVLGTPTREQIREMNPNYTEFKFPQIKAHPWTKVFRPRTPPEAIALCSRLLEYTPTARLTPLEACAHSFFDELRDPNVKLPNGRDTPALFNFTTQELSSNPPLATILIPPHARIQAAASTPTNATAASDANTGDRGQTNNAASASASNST
Serine/threonine-protein kinase Nek6 (Homo sapiens), sequence (Q9HC98 whole entry): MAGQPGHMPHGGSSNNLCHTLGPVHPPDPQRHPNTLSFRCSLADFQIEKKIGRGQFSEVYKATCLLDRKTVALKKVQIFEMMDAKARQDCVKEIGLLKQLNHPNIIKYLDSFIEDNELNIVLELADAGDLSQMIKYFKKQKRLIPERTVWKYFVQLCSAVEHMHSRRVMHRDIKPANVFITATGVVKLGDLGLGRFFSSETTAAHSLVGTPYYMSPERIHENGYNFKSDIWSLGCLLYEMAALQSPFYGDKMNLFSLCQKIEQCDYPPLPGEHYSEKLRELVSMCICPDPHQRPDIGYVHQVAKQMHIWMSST
Calcium/calmodulin-dependent protein kinase type 1 (Homo sapiens), sequence (Q14012 whole entry, looked up): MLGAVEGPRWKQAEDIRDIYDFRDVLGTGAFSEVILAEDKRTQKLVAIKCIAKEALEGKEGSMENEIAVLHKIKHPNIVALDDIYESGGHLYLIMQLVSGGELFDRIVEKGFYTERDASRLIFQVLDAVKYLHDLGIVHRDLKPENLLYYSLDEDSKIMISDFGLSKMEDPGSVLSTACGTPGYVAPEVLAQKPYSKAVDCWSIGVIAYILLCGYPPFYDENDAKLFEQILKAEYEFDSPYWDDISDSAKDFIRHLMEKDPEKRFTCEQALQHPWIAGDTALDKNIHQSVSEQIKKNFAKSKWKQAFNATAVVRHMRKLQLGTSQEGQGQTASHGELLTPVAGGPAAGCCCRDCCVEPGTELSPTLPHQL
Rho-associated protein kinase 2 (Homo sapiens), sequence (O75116 whole entry, looked up): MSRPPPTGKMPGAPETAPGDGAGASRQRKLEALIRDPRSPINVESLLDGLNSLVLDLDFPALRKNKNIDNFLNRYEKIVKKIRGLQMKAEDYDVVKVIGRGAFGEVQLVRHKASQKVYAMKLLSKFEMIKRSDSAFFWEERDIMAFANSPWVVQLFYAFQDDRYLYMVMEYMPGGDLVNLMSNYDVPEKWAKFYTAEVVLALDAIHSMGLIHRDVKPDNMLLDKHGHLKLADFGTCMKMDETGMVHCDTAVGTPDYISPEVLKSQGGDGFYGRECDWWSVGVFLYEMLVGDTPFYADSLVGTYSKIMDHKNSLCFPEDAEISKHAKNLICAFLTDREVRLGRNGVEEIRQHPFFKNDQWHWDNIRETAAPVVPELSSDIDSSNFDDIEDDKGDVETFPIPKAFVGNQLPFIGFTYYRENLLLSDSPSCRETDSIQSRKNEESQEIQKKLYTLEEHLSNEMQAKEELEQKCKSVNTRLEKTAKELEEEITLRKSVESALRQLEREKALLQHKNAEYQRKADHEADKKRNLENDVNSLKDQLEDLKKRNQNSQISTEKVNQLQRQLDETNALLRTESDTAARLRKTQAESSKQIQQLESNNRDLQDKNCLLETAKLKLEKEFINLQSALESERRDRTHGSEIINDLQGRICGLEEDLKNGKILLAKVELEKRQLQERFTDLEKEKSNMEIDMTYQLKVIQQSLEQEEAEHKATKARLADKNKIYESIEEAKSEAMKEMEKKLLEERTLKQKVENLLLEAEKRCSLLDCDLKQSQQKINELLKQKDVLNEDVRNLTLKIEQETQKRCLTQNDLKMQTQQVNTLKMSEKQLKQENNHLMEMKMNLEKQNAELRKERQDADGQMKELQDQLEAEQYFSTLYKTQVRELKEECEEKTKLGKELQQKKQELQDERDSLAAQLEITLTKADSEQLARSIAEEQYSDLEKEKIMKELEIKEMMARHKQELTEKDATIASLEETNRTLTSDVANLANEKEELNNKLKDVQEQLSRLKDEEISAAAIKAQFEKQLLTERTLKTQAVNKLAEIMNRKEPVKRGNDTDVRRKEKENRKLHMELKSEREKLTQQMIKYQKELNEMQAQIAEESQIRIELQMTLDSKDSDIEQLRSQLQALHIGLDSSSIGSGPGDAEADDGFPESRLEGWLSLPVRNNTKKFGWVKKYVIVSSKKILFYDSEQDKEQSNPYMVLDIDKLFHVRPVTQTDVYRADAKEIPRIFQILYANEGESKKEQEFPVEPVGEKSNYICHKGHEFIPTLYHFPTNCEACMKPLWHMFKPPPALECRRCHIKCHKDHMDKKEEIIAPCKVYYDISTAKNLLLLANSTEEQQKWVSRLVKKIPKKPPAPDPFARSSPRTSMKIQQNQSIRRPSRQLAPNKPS
Serine/threonine-protein kinase PLK1 (Homo sapiens), sequence (P53350 whole entry): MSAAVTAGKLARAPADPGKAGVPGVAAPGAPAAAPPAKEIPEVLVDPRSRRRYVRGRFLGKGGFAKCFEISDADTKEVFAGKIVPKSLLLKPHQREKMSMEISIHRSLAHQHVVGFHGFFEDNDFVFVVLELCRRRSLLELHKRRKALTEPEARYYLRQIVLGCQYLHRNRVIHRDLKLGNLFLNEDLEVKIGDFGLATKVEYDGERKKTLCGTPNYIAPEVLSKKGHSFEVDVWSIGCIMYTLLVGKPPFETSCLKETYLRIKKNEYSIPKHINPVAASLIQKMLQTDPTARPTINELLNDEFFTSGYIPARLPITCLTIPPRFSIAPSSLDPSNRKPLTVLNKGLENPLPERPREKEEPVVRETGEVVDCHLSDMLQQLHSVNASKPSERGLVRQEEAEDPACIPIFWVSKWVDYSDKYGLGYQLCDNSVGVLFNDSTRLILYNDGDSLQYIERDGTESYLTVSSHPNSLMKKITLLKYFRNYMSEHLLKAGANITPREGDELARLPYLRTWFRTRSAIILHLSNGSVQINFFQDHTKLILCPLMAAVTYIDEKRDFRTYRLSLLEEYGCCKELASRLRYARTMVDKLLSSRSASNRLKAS
RAC-alpha serine/threonine-protein kinase (Homo sapiens), sequence (P31749 whole entry): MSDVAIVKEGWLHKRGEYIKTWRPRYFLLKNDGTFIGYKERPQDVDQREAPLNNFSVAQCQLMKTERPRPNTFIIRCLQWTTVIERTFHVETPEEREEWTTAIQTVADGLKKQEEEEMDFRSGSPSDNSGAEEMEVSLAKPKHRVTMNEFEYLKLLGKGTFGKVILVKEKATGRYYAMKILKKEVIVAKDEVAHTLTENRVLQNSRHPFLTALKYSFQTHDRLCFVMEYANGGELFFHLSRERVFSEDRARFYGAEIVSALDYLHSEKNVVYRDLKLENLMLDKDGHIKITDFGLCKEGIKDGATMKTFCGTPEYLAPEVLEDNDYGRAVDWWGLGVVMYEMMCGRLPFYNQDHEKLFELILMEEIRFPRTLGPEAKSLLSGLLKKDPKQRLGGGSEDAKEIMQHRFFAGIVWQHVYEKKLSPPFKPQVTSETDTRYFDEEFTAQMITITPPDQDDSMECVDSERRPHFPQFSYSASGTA
Aurora kinase B (Homo sapiens), sequence (Q96GD4 whole entry): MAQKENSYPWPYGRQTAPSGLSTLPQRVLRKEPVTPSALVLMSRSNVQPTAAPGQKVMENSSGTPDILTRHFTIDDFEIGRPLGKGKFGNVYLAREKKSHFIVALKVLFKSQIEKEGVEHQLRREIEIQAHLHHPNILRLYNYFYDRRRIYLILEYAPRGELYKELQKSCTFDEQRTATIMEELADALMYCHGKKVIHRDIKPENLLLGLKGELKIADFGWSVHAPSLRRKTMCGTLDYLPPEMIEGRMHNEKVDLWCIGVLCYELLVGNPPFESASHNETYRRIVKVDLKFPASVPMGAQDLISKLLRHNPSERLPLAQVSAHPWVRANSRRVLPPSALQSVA
Tyrosine-protein kinase BTK (Homo sapiens), sequence (Q06187 whole entry): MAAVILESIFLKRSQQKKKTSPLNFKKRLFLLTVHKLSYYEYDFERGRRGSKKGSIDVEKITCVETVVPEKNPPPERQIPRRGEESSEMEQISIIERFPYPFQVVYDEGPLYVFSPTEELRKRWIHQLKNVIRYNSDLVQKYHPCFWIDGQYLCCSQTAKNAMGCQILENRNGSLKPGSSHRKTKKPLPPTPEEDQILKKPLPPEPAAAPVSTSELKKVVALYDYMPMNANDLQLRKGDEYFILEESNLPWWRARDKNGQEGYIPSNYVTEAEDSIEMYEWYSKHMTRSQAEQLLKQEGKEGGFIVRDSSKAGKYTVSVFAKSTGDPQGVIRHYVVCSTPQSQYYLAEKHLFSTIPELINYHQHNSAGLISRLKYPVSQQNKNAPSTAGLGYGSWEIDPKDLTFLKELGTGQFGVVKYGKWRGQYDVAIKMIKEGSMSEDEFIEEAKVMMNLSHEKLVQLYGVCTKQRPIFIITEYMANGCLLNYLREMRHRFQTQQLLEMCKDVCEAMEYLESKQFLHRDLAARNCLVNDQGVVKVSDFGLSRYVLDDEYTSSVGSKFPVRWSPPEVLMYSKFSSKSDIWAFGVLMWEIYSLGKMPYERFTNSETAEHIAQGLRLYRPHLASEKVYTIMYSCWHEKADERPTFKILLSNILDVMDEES

`Cc1cccc(-c2nn3c(c2-c2ccc(O)cc2)C(C)C(C)(C)C3)n1` (centres undefined) showed an Activity [1] of over 80%, an Activity [2] of over 80% and an Activity [3] of over 80%. For the same compound, the Activity [4] was over 80%, the Activity [5] was over 80% and the IC50 (MCF7) was over 100 µM. The Activity [6] was 60 to 80%, the Activity [7] was over 80% and the Activity [8] was over 80%. The Activity [9] was over 80%, the Activity [10] was over 80% and the Activity (BJ) was “Non-Toxic”. The inhibition [11] was “Active”, the Activity [12] was over 80% and the Activity [13] was over 80%. It also gave an Activity [14] of over 80%, an Activity [15] of 60 to 80% and an Activity [16] of over 80%. The Activity [17] was over 80%, the Activity [18] was over 80% and the Activity [19] was 34%. For the same compound, the Activity [20] was over 80%, the Activity [21] was over 80% and the IC50 [22] was over 100 µM. The Activity [23] was over 80%, the Activity [24] was 60 to 80% and the Activity [25] was over 80%. For the same compound, the Activity [26] was over 80% and the IC50 (K562) was over 100 µM.
